Reference: patent EP0346694A1, “Substituted 3-Aminosydnone imines, process for their preparation and their use” (CASSELLA Aktiengesellschaft, priority 1988, dated 1989)
Counter-ions that a name gives are not always drawn.

System: Spiralstreifen der Arteria pulmonalis des Meerschweinchens
Assay: Relaxation of potassium-depolarised, CaCl₂-contracted spiral strips of guinea pig pulmonary artery (modified method of Godfraind and Kaba / Schüman et al)
Format: cell-based, Meerschweinchen
Details: Cavia porcellus; concentration inhibiting the contraction by 50 %; strips depolarised with 40 mmol/l Kalium in calcium-free Tyrode solution, contraction by 0,5 mmol/l CaCl₂; cumulative addition; mean of 4 to 6 strips; read-out: IC₅₀ (converted)
Description: Die pharmakologische Wirkung der verbindungen der Formel I wurde nach einer modifizierten Methode von Godfraind and Kaba (Arch.Int. Pharmacodyn. Ther. 196, (Suppl) 35 bis 49, 1972) und von Schüman et al (Naunyn-Schmiedeberg's Arch. Pharmacol. 289, 409 bis 418, 1975) ermittelt. Dabei werden Spiralstreifen der Arteria pulmonalis des Meerschweinchens nach Äquilibrierung in calciumfreier Tyrodelösung mit 40 mmol/l Kalium depolarisiert. Ein Zusatz von 0,5 mmol/l CaCl₂ löst dann eine Kontraktion aus. Die relaxierende Wirkung der Prüfsubstanz wird durch kumulative Zugabe in 1/2 log 10 abgestuften Konzentrationen ermittelt. Aus der Konzentrationswirkungskurve (Abszisse: -log mol/l Prüfsubstanz, Ordinate: % Hemmung der maximalen Kontraktion, Mittelwert von 4 bis 6 Gefäß-streifen) wird die Konzentration der Prüfsubstanz ermittelt, welche die Kontraktion um 50 % hemmt (= IC₅₀, mol/l). In der folgenden Tabelle sind die so erhaltenen IC₅₀-Werte angegeben. Wie der Vergleich mit dem IC₅₀-Wert 3·10⁻⁴ für die bekannte Verbindung Molsidomin (N-Ethoxycarbonyl-3-morpholino-sydnonimin), vgl. DE-B-16 95 897, ergibt, liegen die Werte für die Verbindungen der Formel I erheblich günstiger.

IC50	Structure (SMILES)
1000 nM	CC1(C)CCCCN1[n+]1cc([NH-])on1 [b, 3-(2.2-Dimethylpiperidin-1-yl)-sydnonimin-hydrochlorid]
1000 nM	CC1(C)COCCN1[n+]1cc([NH-])on1 [a, 3-(3.3-Dimethylmorpholin-4-yl)-sydnonimin-hydrochlorid]
300000 nM	CCOC(=O)[N-]c1c[n+](N2CCOCC2)no1 [d, N-Ethoxycarbonyl-3-morpholino-sydnonimin, reference compound]

Structure (SMILES)	IC50
CC(C)N1CCN([n+]2cc([NH-])on2)C(C)(C)C1 [c, 3-(4-Isopropyl-2.2-dimethyl-piperazin-1-yl)-sydnonimin-dihydrochlorid]	1000 nM
